Data: ChEMBL document CHEMBL1135808, “A new type of mixed anhydride and its applications to the synthesis of 7-substituted 8-chloro-5,5-dioxoimidazo[1,2-b][1,4,2]benzodithiazines with in vitro antitumor activity” (2002)

Legend:
[1] = tested on: BT-549; assay: In vitro growth inhibition against breast cancer BT 549 cell line was reported.; type: functional; settings: Homo sapiens
[2] = tested on: Hs-578T; assay: In vitro growth inhibition against breast cancer HS 578T cell line was reported.; type: functional; settings: Homo sapiens
[3] = tested on: HCT-116; assay: Log of molar concentration leading to 50% cell death against colon cancer HCT116 cell line was reported; type: functional; settings: Homo sapiens, read-out: Log LC50 (the source's name) (converted)
[4] = tested on: SF-295; assay: In vitro total growth inhibition against CNS cancer SF-295 cell lines was reported.; type: functional; settings: Homo sapiens, read-out: Log TGI (converted)
[5] = tested on: SNB-19; assay: Log of molar concentration leading to 50% cell death against CNS cancer SNB-19 cell line was reported; type: functional; settings: Homo sapiens, read-out: Log LC50 (the source's name) (converted)
[6] = tested on: SNB-75; assay: Log of molar concentration leading to 50% cell death against CNS cancer SNB-75 cell line was reported; type: functional; settings: Homo sapiens, read-out: Log LC50 (the source's name) (converted)
[7] = tested on: SF-268; assay: In vitro total growth inhibition against CNS cancer SF-268 cell lines was reported.; type: functional; settings: Homo sapiens, read-out: Log TGI (converted)
[8] = tested on: Tumor Cell line; assay: Log of molar concentration leading to 50% cell death was reported; type: functional; settings: Homo sapiens, read-out: Log LC50 (the source's name) (converted)
[9] = tested on: HL-60; assay: In vitro growth inhibition against leukemia HL-60(TB) cell line was reported.; type: functional; settings: Homo sapiens
[10] = tested on: MOLT-4; assay: In vitro total growth inhibition against leukemia MOLT-4 cell lines was reported.; type: functional; settings: Homo sapiens, read-out: Log TGI (converted)
[11] = tested on: M14; assay: In vitro growth inhibition against melanoma M14 cell line was reported.; type: functional; settings: Homo sapiens
[12] = tested on: SK-MEL-2; assay: In vitro growth inhibition against melanoma SK-MEL-2 cell line was reported.; type: functional; settings: Homo sapiens
[13] = tested on: SK-MEL-5; assay: In vitro growth inhibition against melanoma SK-MEL-5 cell line was reported.; type: functional; settings: Homo sapiens
[14] = tested on: NCI-H46; assay: Log of molar concentration leading to 50% cell death against non-small-cell lung cancer […] cell line was reported; type: functional; settings: Homo sapiens, read-out: Log LC50 (the source's name) (converted)
[15] = tested on: NCI-H522; assay: Log of molar concentration leading to 50% cell death against non-small-cell lung cancer NCI-522 cell line was reported; type: functional; settings: Homo sapiens, read-out: Log LC50 (the source's name) (converted)
[16] = tested on: NCI-H226; assay: Log of molar concentration leading to 50% cell death against non-small-cell lung cancer NCI-H226 cell line was reported; type: functional; settings: Homo sapiens, read-out: Log LC50 (the source's name) (converted)
[17] = tested on: NCI-H23; assay: Log of molar concentration leading to 50% cell death against non-small-cell lung cancer NCI-H23 cell line was reported; type: functional; settings: Homo sapiens, read-out: Log LC50 (the source's name) (converted)
[18] = tested on: OVCAR-4; assay: In vitro total growth inhibition against ovarian cancer OVCAR-4 cell lines was reported.; type: functional; settings: Homo sapiens, read-out: Log TGI (converted)
[19] = tested on: OVCAR-5; assay: In vitro total growth inhibition against ovarian cancer OVCAR-5 cell lines was reported.; type: functional; settings: Homo sapiens, read-out: Log TGI (converted)
[20] = tested on: SK-OV-3; assay: In vitro total growth inhibition against ovarian cancer SK-OV-3 cell lines was reported.; type: functional; settings: Homo sapiens, read-out: Log TGI (converted)
[21] = tested on: CAKI-1; assay: In vitro growth inhibition against renal cancer CAKI-1 cell line was reported.; type: functional; settings: Homo sapiens
[22] = tested on: 786-0; assay: In vitro growth inhibition against renal cancer […] cell line was reported.; type: functional; settings: Homo sapiens
[23] = tested on: A498; assay: In vitro growth inhibition against renal cancer A498 cell line was reported.; type: functional; settings: Homo sapiens
[24] = tested on: SN12C; assay: In vitro growth inhibition against renal cancer SN12C cell line was reported.; type: functional; settings: Homo sapiens
[25] = tested on: SN12C; assay: In vitro total growth inhibition against renal cancer SN12C cell lines was reported.; type: functional; settings: Homo sapiens, read-out: Log TGI (converted)
[26] = tested on: UO-31; assay: In vitro growth inhibition against renal cancer UO-31 cell line was reported.; type: functional; settings: Homo sapiens
[27] = tested on: SR; assay: Log of molar concentration leading to 50% cell death against leukemia SR cell line was reported; type: functional; settings: Homo sapiens, read-out: Log LC50 (the source's name) (converted)
[28] = tested on: MOLT-4; assay: Log of molar concentration leading to 50% cell death against leukemia MOLT-4 cell line was reported; type: functional; settings: Homo sapiens, read-out: Log LC50 (the source's name) (converted)
[29] = tested on: CCRF-CEM; assay: Log of molar concentration leading to 50% cell death against leukemia CCRF-CEM cell line was reported; type: functional; settings: Homo sapiens, read-out: Log LC50 (the source's name) (converted)
[30] = tested on: HCT-15; assay: Log of molar concentration leading to 50% cell death against colon cancer HCT-15 cell line was reported; type: functional; settings: Homo sapiens, read-out: Log LC50 (the source's name) (converted)
[31] = tested on: OVCAR-5; assay: Log of molar concentration leading to 50% cell death against ovarian cancer […] cell line was reported; type: functional; settings: Homo sapiens, read-out: Log LC50 (the source's name) (converted)
[32] = tested on: OVCAR-4; assay: Log of molar concentration leading to 50% cell death against ovarian cancer OVCAR-4 cell line was reported; type: functional; settings: Homo sapiens, read-out: Log LC50 (the source's name) (converted)
[33] = tested on: BT-549; assay: Log of molar concentration leading to 50% cell death against breast cancer BT 549 cell line was reported; type: functional; settings: Homo sapiens, read-out: Log LC50 (the source's name) (converted)
[34] = tested on: MDA-MB-435; assay: Log of molar concentration leading to 50% cell death against breast cancer MDA-MB-435 cell line was reported; type: functional; settings: Homo sapiens, read-out: Log LC50 (the source's name) (converted)
[35] = tested on: MDA-N; assay: Log of molar concentration leading to 50% cell death against breast cancer MDA-Ncell line was reported; type: functional; settings: Homo sapiens, read-out: Log LC50 (the source's name) (converted)
[36] = tested on: LOX IMVI; assay: Log of molar concentration leading to 50% cell death against melanoma LOX IMVI cell line was reported; type: functional; settings: Homo sapiens, read-out: Log LC50 (the source's name) (converted)
[37] = tested on: LOX IMVI; assay: In vitro total growth inhibition against melanoma LOX IMVI cell lines was reported.; type: functional; settings: Homo sapiens, read-out: Log TGI (converted)
[38] = tested on: M14; assay: In vitro total growth inhibition against melanoma M14 cell lines was reported.; type: functional; settings: Homo sapiens, read-out: Log TGI (converted)
[39] = tested on: Malme-3M; assay: Log of molar concentration leading to 50% cell death against melanoma MALME 3M cell line was reported; type: functional; settings: Homo sapiens, read-out: Log LC50 (the source's name) (converted)
[40] = tested on: Malme-3M; assay: In vitro total growth inhibition against melanoma MALME 3M cell lines was reported.; type: functional; settings: Homo sapiens, read-out: Log TGI (converted)
[41] = tested on: A498; assay: Log of molar concentration leading to 50% cell death against renal cancer A498 cell line was reported; type: functional; settings: Homo sapiens, read-out: Log LC50 (the source's name) (converted)
[42] = tested on: ACHN; assay: Log of molar concentration leading to 50% cell death against renal cancer ACHN cell line was reported; type: functional; settings: Homo sapiens, read-out: Log LC50 (the source's name) (converted)
[43] = tested on: SN12C; assay: Log of molar concentration leading to 50% cell death against renal cancer SN12C cell line was reported; type: functional; settings: Homo sapiens, read-out: Log LC50 (the source's name) (converted)
[44] = tested on: UO-31; assay: Log of molar concentration leading to 50% cell death against renal cancer UO-31 cell line was reported; type: functional; settings: Homo sapiens, read-out: Log LC50 (the source's name) (converted)
[45] = tested on: ACHN; assay: In vitro growth inhibition against renal cancer ACHN cell line was reported.; type: functional; settings: Homo sapiens
[46] = tested on: COLO 205; assay: In vitro growth inhibition against colon cancer COLO 205 cell line was reported.; type: functional; settings: Homo sapiens
[47] = tested on: UO-31; assay: In vitro total growth inhibition against renal cancer UO-31 cell lines was reported.; type: functional; settings: Homo sapiens, read-out: Log TGI (converted)
[48] = tested on: SR; assay: In vitro total growth inhibition against leukemia SR cell lines was reported.; type: functional; settings: Homo sapiens, read-out: Log TGI (converted)
[49] = tested on: A498; assay: In vitro total growth inhibition against renal cancer A-498 cell lines was reported.; type: functional; settings: Homo sapiens, read-out: Log TGI (converted)
[50] = tested on: OVCAR-8; assay: Log of molar concentration leading to 50% cell death against ovarian cancer OVCAR-8 cell line was reported; type: functional; settings: Homo sapiens, read-out: Log LC50 (the source's name) (converted)
[51] = tested on: HOP-92; assay: In vitro total growth inhibition against non-small-cell lung cancer HOP-92 cell lines was reported.; settings: Homo sapiens, read-out: Log TGI (converted)

O=C(Nc1nccs1)c1cc2c(cc1Cl)Sc1nccn1S2(=O)=O
GI50 [1]: 18.2 µM | GI50 [2]: 28.2 µM | CC50 [3]: 55 µM | TGI [4]: 34.7 µM | CC50 [5]: 72.4 µM | CC50 [6]: 66.1 µM | TGI [7]: 46.8 µM | CC50 [8]: 97.7 µM | GI50 [9]: 13.5 µM | TGI [10]: 41.7 µM | GI50 [11]: 17.8 µM | GI50 [12]: 17.4 µM | GI50 [13]: 16.6 µM | CC50 [14]: 55 µM | CC50 [15]: 6.61 µM | CC50 [16]: 64.6 µM | CC50 [17]: 67.6 µM | TGI [18]: 38.9 µM | TGI [19]: 45.7 µM | TGI [20]: 64.6 µM | GI50 [21]: 8.51 µM | GI50 [22]: 15.8 µM | GI50 [23]: 19.1 µM | GI50 [24]: 17 µM | TGI [25]: 32.4 µM | GI50 [26]: 4.37 µM | CC50 [27]: 46.8 µM | CC50 [28]: 93.3 µM | CC50 [29]: 95.5 µM | CC50 [30]: 93.3 µM | CC50 [31]: 97.7 µM | CC50 [32]: 91.2 µM | CC50 [33]: 69.2 µM | CC50 [34]: 57.5 µM | CC50 [35]: 61.7 µM | CC50 [36]: 60.3 µM | TGI [37]: 25.7 µM | TGI [38]: 34.7 µM | CC50 [39]: 69.2 µM | TGI [40]: 37.2 µM | CC50 [41]: 63.1 µM | CC50 [42]: 58.9 µM | CC50 [43]: 63.1 µM | CC50 [44]: 46.8 µM | GI50 [45]: 17.8 µM | GI50 [46]: 17 µM | TGI [47]: 14.8 µM | TGI [48]: 12 µM | TGI [49]: 34.7 µM | CC50 [50]: 79.4 µM | TGI [51]: 39.8 µM
